The values that follow come from patent publication US11744896B2, “Compositions, use, and method for CDK2-PROTACs for cancer therapy and hearing loss” (Creighton University, priority 2020, dated 2023).

“Also recorded” adds a separate entry of the source. Read-outs that look alike come from different tables or passages of the source. Some results are limits rather than exact numbers.

Data set [1] has as its system cisplatin-induced hearing loss. The following applies: mouse; previous work; cited from earlier work.
In data set [2] the test system is zebrafish lateral line neuromast hair cells. Particulars: zebrafish lateral line neuromasts, background statement, cited from earlier work.
The subject of data set [3] is cochlear explants. The following applies: cited from earlier work.
Data set [4] concerns neuromast hair cells. Kind of data set: Zebrafish neuromast hair cell protection from kainic acid. Format: in vivo, zebrafish (Danio rerio). Particulars: kainic acid 300 μM for 50 min after pre-treatment. The method, then:
Four days post-fertilization (dpf) zebrafish (Danio rerio) larvae were obtained by pair mating of adult TuAB fish maintained at Creighton University by standard methods approved by the Institutional Animal Care and Use Committee. Experimental fish were maintained at 28.5° C. in E3 media (5 mM NaCl, 0.17 mM KCl, 0.33 mM CaCl2 and […] MgSO4, pH 7.2) until the day of the experiment.
(§1) The next day fish were transferred to a fresh solution of kainic acid 300 μM for 50 min, led recover in fresh E3 media for 2 hours, and fixed with 4% paraformaldehyde. Animals were processed for immunofluorescence analysis as described for the cisplatin treatments. After the 24 hours incubation with PROTAC-8 and before the incubation with the ototoxin, some fish were collected for immunoblot analysis of CDK2 abundance.
(§2) Control animals were exposed to 0.1% DMSO in E3 media. Images were taken employing a Zeiss LSM 710 confocal microscope with a 63× oil objective.
For the screening of the effect of PROTAC-8, neuromast hair cell counts were performed manually, employing a Zeiss AxioSkop 2 fluorescence microscope with a 40× oil objective. Confocal imaging was performed using a Zeiss LSM 710 confocal laser scanning image system with a 63× oil objective. Images were captured at room temperature with automatically set sectioning. The acquired images were processed with ZEN black edition software. […]

Data set [5] deals with zebrafish lateral line neuromast hair cells. Kind of data set: Zebrafish neuromast hair cell protection from cisplatin. The format is in vivo. The following applies: for protection of zebrafish lateral line neuromast hair cells from cisplatin toxicity: pre-incubation, then co-incubation with cisplatin for 6 hours.
Text: Four days post-fertilization (dpf) zebrafish (Danio rerio) larvae were obtained by pair mating of adult TuAB fish maintained at Creighton University by standard methods approved by the Institutional Animal Care and Use Committee.
Animals were immunostained for the hair cell marker, otoferlin (HCS-1, DSHB), and process for fluorescence microscopy. Otic, middle, and opercular neuromasts were identified, and hair cells were manually counted using a Zeiss AxioSkop 2 fluorescence microscope with a 40× oil objective.
as §2
For the screening of the effect of PROTAC-8, neuromast hair cell counts were performed manually, employing a Zeiss AxioSkop 2 fluorescence microscope with a 40× oil objective. Confocal imaging was performed using a Zeiss LSM 710 confocal laser scanning image system with a 63× oil objective. Images were captured at room temperature with automatically set sectioning. The acquired images were processed with ZEN black edition software. Z-stack images are presented as flat Z-projections.

The test system of data set [6] is CDK2. Kind of data set: CDK2 abundance in total zebrafish lysates (immunoblot). Format: in vivo, zebrafish (Danio rerio). The following applies: at concentrations of 0.1 nM and 1 μM. The procedure: as §1
(§3) Specific bands were quantified using ImageJ (NIH).
Further to find the effect of AZD5438-PROTAC 8 (Example 2) in protecting zebrafish hair cells from cisplatin otoxicity, zebrafish were pre-incubated with AZD5438-PROTAC 8 and then co-incubated with cisplatin for six hours. […] To check the degradation of CDK2 in zebrafish, fish were treated with AZD5438-PROTAC 8 in different concentration and total zebrafish lysates used for immunoblots (FIG. 12B). AZD5438-PROTAC 8 degrades CDK2 at concentrations of 0.1 nM and 1 μM (FIGS. 12B-12C).
Background: Immunoblotting shows a protein as a band on a membrane.

In data set [7] the target is T1, CDK2 (Homo sapiens, UniProt P24941).
T1 construct: endogenous in cells; host or cells: HeLa
Kind of data set: CDK2 degradation in HeLa cell line (immunoblot). The format is cell-based. The following applies: HeLa cells incubated overnight, different concentrations. The method, then:
(§4) To test the efficacy of the synthesized AZD5438-PROTACs, HeLa cells were incubated overnight with different concentrations of AZD5438-PROTAC Examples 1, 2, 5, and 6.

The subject of data set [8] is CDK1, CDK5, CDK7 or CDK9. Kind of data set: Abundance of closely related CDKs in HEI-OC1 cells (immunoblot). Particulars: 24 hours. The format is cell-based.
Text: as §3

For data set [9], the target named is CDK2 (Mus musculus, UniProt P97377). Particulars: HEI-OC1 cells; for CDK2 degradation (immunoblot): 0.1 nM to 1 μM.
Method: HEI-OC1 cells were maintained in DMEM with 10% of Fetal bovine serum at 33° C. in a 10% CO2 atmosphere. […] Cells were harvested in RIPA buffer (NaCl 150 mM, Tris-HCl 50 mM, Nonidet-40 1%, Sodium deoxycholate 0.5%, SDS 0.1%, pH 7.4) containing protease (Sigma-Aldrich, MO P8340) and phosphatase inhibitors (ThermoFisher, CA, A32957) for immunoblot analysis.
Lysates were prepared after a 24 hours incubation and processed for Western blot analysis.
Membranes were blocked for 1 hour at room temperature with 3% milk followed by overnight incubation with the primary antibody in 3% milk. After several washes and the secondary incubation for 1 hour, membranes were developed employing an iBright FL1000 (ThermoFisher, CA). Immunoblots were stripped and probed for β-actin as the loading control. Specific bands were quantified using ImageJ (NIH).
The target in data set [10] is T2, CDK9 (Homo sapiens, UniProt P50750).
T2 construct: endogenous in cells; host or cells: HeLa
Kind of data set: CDK9 degradation in HeLa cell line (immunoblot). The format is cell-based. Particulars: HeLa cells incubated overnight. The procedure: as §4

Data set [11] deals with T3, CDK1 (Homo sapiens, UniProt P06493).
T3 construct: endogenous in cells; host or cells: HeLa
Kind of data set: CDK1 degradation in HeLa cell line (immunoblot). The format is cell-based. Particulars: HeLa cells incubated overnight. The method, then:
as §4

T3 sequence (P06493 whole entry): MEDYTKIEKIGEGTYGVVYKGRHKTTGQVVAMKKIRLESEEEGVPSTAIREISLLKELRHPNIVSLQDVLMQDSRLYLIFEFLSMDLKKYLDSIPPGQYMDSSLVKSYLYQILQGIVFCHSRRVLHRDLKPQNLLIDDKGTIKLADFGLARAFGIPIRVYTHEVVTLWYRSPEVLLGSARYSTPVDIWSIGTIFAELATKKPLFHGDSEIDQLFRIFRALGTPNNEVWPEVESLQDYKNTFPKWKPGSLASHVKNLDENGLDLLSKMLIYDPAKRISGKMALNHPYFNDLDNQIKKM
T2 sequence (P50750 whole entry): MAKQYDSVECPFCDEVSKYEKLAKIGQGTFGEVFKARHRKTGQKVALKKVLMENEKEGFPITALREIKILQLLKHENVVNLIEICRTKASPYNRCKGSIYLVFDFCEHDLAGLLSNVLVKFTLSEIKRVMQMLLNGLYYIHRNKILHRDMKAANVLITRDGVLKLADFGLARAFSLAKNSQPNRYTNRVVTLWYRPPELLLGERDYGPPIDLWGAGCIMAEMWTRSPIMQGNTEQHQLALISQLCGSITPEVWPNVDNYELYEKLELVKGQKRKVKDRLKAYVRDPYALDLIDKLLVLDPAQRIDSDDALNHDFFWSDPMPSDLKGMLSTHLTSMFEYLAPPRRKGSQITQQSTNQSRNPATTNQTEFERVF

On to `O=C(NC1CCNCC1)c1n[nH]cc1NC(=O)c1c(Cl)cccc1Cl` [AT7519], for which the “protection against cisplatin-induced ototoxicity / hearing loss in vivo” value in data set [1] is reported as “can prevent cisplatin-induced ototoxicity in vivo”.

Regarding `Cc1ncc(-c2ccnc(Nc3ccc(S(C)(=O)=O)cc3)n2)n1C(C)C` [AZD5438], the “protection of zebrafish lateral line against cisplatin ototoxicity (earlier studies)” value in data set [2] is given as “hair cell loss was reduced”; in data set [2] (listed as ACD5438) it was “protects zebrafish lateral line against cisplatin ototoxicity”. Besides, the IC50 in data set [3] (cochlear explants, cisplatin, read-out: IC50, protection against cisplatin toxicity in cochlear explants) was 5 nM. Besides, the “protection against cisplatin-induced ototoxicity in mouse cochlear explants” value in [3] (previous study) is listed as “best protection against cisplatin-induced ototoxicity”. In addition, the “protection of neuromast hair cells from kainic acid damage” value in data set [4] was “able to protect the zebrafish lateral line neuromasts from cisplatin and kainic acid damage”. In [5], the “protection of zebrafish lateral line neuromast hair cells from cisplatin toxicity” value was “able to protect the zebrafish lateral line neuromasts from cisplatin and kainic acid damage”. For the same molecule, the “CDK2 degradation in zebrafish” value in [6] is recorded as “without CDK2 degradation”. In data set [1], the “protection against cisplatin-induced ototoxicity / hearing loss in vivo” value is “best protection against cisplatin-induced ototoxicity; also recorded: fully protects against cisplatin-induce hearing loss in mice by local delivery; also recorded: can prevent cisplatin-induced ototoxicity in vivo; also recorded: hair cell loss was reduced”.

For `Cc1ncc(-c2ccnc(Nc3ccc(S(=O)(=O)CCCc4cn(CCOCCOCCOCCNc5cccc6c5C(=O)N(C5CCC(=O)NC5=O)C6=O)nn4)cc3)n2)n1C(C)C` (centres unmarked) [Example 1, 2-(2,6-dioxopiperidin-3-yl)-4-((2-(2-(2-(2-(4-(3-((4-((4-(1-isopropyl-2-methyl-1H-imidazol-5-yl)pyrimidin-2-yl)amino)phenyl)sulfonyl)propyl)-1H-1,2,3-triazol-1-yl)ethoxy)ethoxy)ethoxy)ethyl)amino)isoindoline-1,3-dione], the figures for the “CDK2 degradation (immunoblot)” value in data set [7] and in [9] (24 hours) were “only the treatment with AZD5438-PROTAC-8 resulted in the degradation of CDK2” and “did not show any CDK2 degradation”, respectively. Also, the “degradation / abundance of closely related CDKs (CDK1, CDK5, CDK7, CDK9); selectivity” value (shortened to “degradation / abundance … selectivity”) in data set [8] is “nor changes in the abundance of any of the closely related CDKs”.

As for `Cc1ncsc1-c1ccc(CNC(=O)[C@@H]2C[C@@H](O)CN2C(=O)[C@@H](NC(=O)COCCn2cc(CCCS(=O)(=O)c3ccc(Nc4nccc(-c5cnc(C)n5C(C)C)n4)cc3)nn2)C(C)(C)C)cc1` [Example 2, (2S,4R)-4-hydroxy-1-((S)-2-(2-(2-(4-(3-((4-((4-(1-isopropyl-2-methyl-1H-imidazol-5-yl)pyrimidin-2-yl)amino)phenyl)sulfonyl)propyl)-1H-1,2,3-triazol-1-yl)ethoxy)acetamido)-3,3-dimethylbutanoyl)-N-(4-(4-methylthiazol-5-yl)benzyl)pyrrolidine-2-carboxamide], in [7], the “CDK2 degradation (immunoblot)” value is reported as “resulted in the degradation of CDK2”. Moreover, the “protection of neuromast hair cells from kainic acid damage” value in data set [4] was “able to protect the zebrafish lateral line neuromasts from cisplatin and kainic acid damage”. Further, the “protection of zebrafish hair cells from cisplatin ototoxicity (FIG. 11A)” value in data set [5] (five-day post-fertilization fish, 1 hour pre-incubation, 6 hours co-incubation with cisplatin 400 μM) is given as “protects zebrafish hair cells from cisplatin otoxicity”. The “protection of zebrafish lateral line neuromast hair cells from cisplatin toxicity” value in [5] (listed as AZD5438-PROTAC 8) is “significantly protects the zebrafish lateral line neuromasts from cisplatin toxicity”; in data set [5] (listed as PROTAC-8), “able to protect the zebrafish lateral line neuromasts from cisplatin and kainic acid damage”. In addition, in data set [5] (zebrafish, without cisplatin (FIG. 11A)), the “toxic effect of PROTAC alone on neuromast hair cells” value was “did not show any toxic effect”. In addition, the “CDK9 degradation (immunoblot)” value in [10] is listed as “No significant degradation”. The “CDK1 degradation (immunoblot)” value in [11] is “No significant degradation”. In data set [8], the “degradation / abundance … selectivity” value is “selective for CDK2 degradation”. In [6], the “CDK2 degradation in zebrafish” value is reported as “degrades CDK2”. Moreover, in data set [9] (100 nM PROTAC-8 and 300 nM MG-132, 24 hours), the “CDK2 degradation on co-incubation with proteasome inhibitor MG-132” value is reported as “abolished CDK2 degradation”. The CDK2 degradation result in data set [9] (24 hours, 100 nM concentration) is given as “around 50%”. In [9] (read-out: half maximal degradation concentration (DC50), CDK2 degradation), the DC50 was > 1000 nM.

As to `O=C1CCC(N2C(=O)c3cccc(NCCOCCOCCOCCn4cc(CO[C@H]5CC[C@H](NC(=O)c6n[nH]cc6NC(=O)c6c(F)cccc6F)CC5)nn4)c3C2=O)C(=O)N1` (some centres unmarked) [Example 3, 4-(2,6-difluorobenzamido)-N-((1r,4r)-4-((1-(2-(2-(2-(2-((2-(2,6-dioxopiperidin-3-yl)-1,3-dioxoisoindolin-4-yl)amino)ethoxy)ethoxy)ethoxy)ethyl)-1H-1,2,3-triazol-4-yl)methoxy)cyclohexyl)-1H-pyrazole-3-carboxamide], in [8], the “degradation / abundance … selectivity” value is given as “nor changes in the abundance of any of the closely related CDKs”. The “CDK2 degradation (immunoblot)” value in [9] (24 hours) is listed as “did not show any CDK2 degradation”.

Turning to `Cc1ncsc1-c1ccc(CNC(=O)[C@@H]2C[C@@H](O)CN2C(=O)[C@@H](NC(=O)COCCn2cc(CO[C@H]3CC[C@H](NC(=O)c4n[nH]cc4NC(=O)c4c(F)cccc4F)CC3)nn2)C(C)(C)C)cc1` [Example 4, 4-(2,6-difluorobenzamido)-N-((1S,4r)-4-((1-(2-(2-(((S)-1-((2S,4R)-4-hydroxy-2-((4-(4-methylthiazol-5-yl)benzyl)carbamoyl)pyrrolidin-1-yl)-3,3-dimethyl-1-oxobutan-2-yl)amino)-2-oxoethoxy)ethyl)-1H-1,2,3-triazol-4-yl)methoxy)cyclohexyl)-1H-pyrazole-3-carboxamide], the “degradation / abundance … selectivity” value in data set [8] is on record as “nor changes in the abundance of any of the closely related CDKs”. Besides, in data set [9] (24 hours), the “CDK2 degradation (immunoblot)” value is “did not show any CDK2 degradation”.

Broadly, the IC50 is the concentration needed to halve the response being measured.
